Source: US20040029953A1, “Use of neuropeptide-y antagonists in treatment of alcoholism” (priority 2000, published 2004)
Entries after “also recorded” stand apart in the source; their conditions may differ.

Assays:
[1] = test system: Long-Evans rats; assay: Ethanol (10% v/v) vs. water self-administration after infusion in the PVN, sucrose-faded rats with long-term ethanol history; type: in vivo, rat
Text: The effectiveness of known NPY receptor antagonists and NPY Y1-selective or Y5selective receptor antagonists in reducing craving for alcohol and reducing self-administration of alcohol can be tested in experimental animal models. Briefly, Long-Evans rats are conditioned to the laboratory environment and trained to self-administer concurrent ethanol (10% v/v) vs. water using a sucrose-fading procedure (H. H. Samson, Alcohol Clin. Exp. Res., 1986, 10:436442) as described by Hodge et al. (Alcohol, 1993, 10:191-196). Stereotaxic surgery is performed to implant injector guide cannulae aimed at the PVN. Microinjections of test compounds are given, with and without concomitant injection of NPY, into the PVN of the conditioned rats, which are then immediately given the opportunity to self-administer either water or ethanol (10% v/v). The volume of ethanol and water consumed are measured. Ethanol intake is converted from milliliters consumed to gram/kilogram body weight. Relative ethanol intake (preference) is calculated as […] of ethanol consumed divided by total fluid intake (ethanol+water […]). Drug dose effects are analyzed by one-way repeated measures analysis of variance (ANOVA). Post-hoc comparisons between drug doses and vehicle control are conducted using a paired t-test or Dunnett's t-test where appropriate (SigmaStat, Jandel, San Rafael, Calif.).
Animals. Thirty-six male Long-Evans rats (Harlan, Indianapolis, Ind.) were housed individually in Plexiglas cages. Access to water was restricted during the first day of behavioral training, but was continuously available for the remainder of the experiment. Food was always available in the home cage. In experimental chambers, ethanol (10% v/v) and water were available concurrently during daily (M-F) sessions. The animal colony room was maintained on a 12L:12D cycle with the lights on at 06:30. Experimental sessions were run during the light portion of the cycle. All experimental procedures were conducted under institutional and NIH guidelines.
Apparatus. Experimental sessions were conducted in Plexiglas chambers (27×37×21 cm) located in sound-attenuating cubicles (MED Associates, model ENV 016M, Lafayette, Ind.). Chambers were equipped with exhaust fans that masked external noise. The right wall of each chamber contained two 50-ml drinking bottles. Drug solutions were administered bilaterally through stainless steel injectors (Plastics One, Roanoke, Va.), which were connected via plastic tubing to two 1.0 μl syringes (Hamilton, Reno, Nev.). Syringes were mounted on a micro-infusion pump (Harvard Apparatus, Model 22, Natick, Mass.) set to deliver 0.5 μl/min/syringes.
Self-administration procedures. After 2 weeks of adaptation to laboratory housing conditions, fluid access was restricted to 1-h per day (for 2 days only) and two groups of rats (n=12 per group) were trained to drink from the bottles in the experimental chambers by overnight access to sucrose (10% w/v) vs. water during one overnight session. Daily 1 hour sessions were then conducted with sucrose (10% w/v) vs. water available concurrently. The location (i.e., left or right side of the chamber) of the sucrose and water solutions was alternated daily. When sucrose and water intake patterns stabilized, the rats were trained to self-administer concurrent ethanol (10% v/v) vs. water using a sucrose-fading procedure (H. H. Samson, Alcohol Clin. Exp. Res., 1986, 10:436-442) as previously described (e.g., Hodge et al., 1993). Briefly, ethanol was gradually added to the sucrose solution and then sucrose was faded out of the solution until rats were self-administering 10% ethanol vs. water. During the 2-month sucrose-fading procedure, the location of the ethanol/sucrose solution and water were alternated daily.

[2] = test system: rats trained to self-administer ethanol vs. water; assay: Microinjection in the central nucleus of the amygdala (CeA), ethanol vs. water self-administration; type: in vivo, rat
Description: FIG. 4 depicts a dose response curve showing the effects the NPY-Y1 antagonist BIBP 3226 in the central nucleus of the Amygdala.
To further elucidate the role of NPY receptors in alcohol-seeking behavior, the NPY-Y1 […] BIBP 3226 was injected in the central nucleus of the amygdala (CeA) of rats trained to self-administer ethanol vs. water as described (Kelley et al., 2001 Peptides 22: 515-522). The CeA was chosen as an additional test site because, in addition to the hypothalamus, this brain region contains significant numbers of NPY receptors.

[3] = test system: rats; conditions: cited from earlier work
[4] = molecular target: T1, Y1 receptor (Homo sapiens, UniProt P25929); conditions: cited from earlier work
T1 sequence (P25929 1-384): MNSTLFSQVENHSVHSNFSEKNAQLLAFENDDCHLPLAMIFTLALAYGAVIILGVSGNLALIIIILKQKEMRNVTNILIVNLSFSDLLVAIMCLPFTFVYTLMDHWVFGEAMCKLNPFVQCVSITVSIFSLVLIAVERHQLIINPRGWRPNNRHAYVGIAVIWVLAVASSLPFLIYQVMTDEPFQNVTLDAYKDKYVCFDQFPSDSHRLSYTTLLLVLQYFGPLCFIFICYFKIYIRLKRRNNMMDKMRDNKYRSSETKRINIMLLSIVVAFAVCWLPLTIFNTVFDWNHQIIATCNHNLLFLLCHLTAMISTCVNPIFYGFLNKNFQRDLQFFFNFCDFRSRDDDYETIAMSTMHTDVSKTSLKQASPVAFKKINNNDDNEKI

[5] = BIBP 3226 (10.6 μm) alone in the PVN

N=C(N)NCCC[C@@H](NC(=O)C(c1ccccc1)c1ccccc1)C(=O)NCc1ccc(O)cc1 [BIBP 3226, (R)-N^2-(diphenylacetyl)-N-[(4-hydroxyphenyl)methyl]-D-arginine amide]
ethanol intake [1, 5]: no significant effect
ethanol preference [1, 5]: no significant effect
water intake [1, 5]: no significant effect
NPY-induced increase in ethanol intake ([1]; BIBP 3226 co-administered with NPY (10 fmol) in the PVN): completely blocked
dose of self-administered ethanol ([2]; BIBP 3226 in the CeA, highest dose, 1-hour sessions, vs vehicle, p<0.05): reduced ethanol self-administration after infusion of the highest dose; also recorded: significantly reduced alcohol self-administration; also recorded: significantly reduced the dose of alcohol that was self-administered
water intake ([2]; BIBP 3226 injected in the CeA): no effect on water intake

[Pro^34]-NPY: Y1 agonist that stimulates feeding
food intake relative to that seen following the injection of NPY ([3]; rat, in vivo): approximately 50%

N=C(N)NCCC[C@@H](NC(=O)C(c1ccccc1)c1ccccc1)C(=O)NCc1ccc(CNC(N)=O)cc1.O=C(O)C(F)(F)F [BIBO 3304, (R)-N-[[4-(aminocarbonylaminomethyl)-phenyl]methyl]-N^2-(diphenylacetyl)arginine amide trifluoroacetate]
food intake induced by application of NPY or by fasting ([3]; rats): significantly inhibits food intake

NPY 2-36: an N-terminal truncated NPY fragment
affinity for the Y1 receptor subtype [4]: low potency
